Values after ≈ are worked out from the molar mass of the structure shown.
Key:
[1] = Half life of the compound at pH 7.4 at 37 degC; type: ADME
[2] = Unbound fraction in human plasma after 16 hrs by LC-MS/MS analysis
Pseudomonas aeruginosa [3] = test: Antibacterial activity against Pseudomonas aeruginosa PAO1 by broth microdilution method; type: functional
Pseudomonas aeruginosa [4] = test: Activity of Pseudomonas aeruginosa PBP3 assessed as acylation rate constant
Pseudomonas aeruginosa [5] = test: Antibacterial activity against Pseudomonas aeruginosa; type: functional
[6] = Volume of distribution at steady state in Han Wistar rat at 1 mg/kg, iv; type: ADME, organism-based; details: in vivo, read-out: Vdss
[7] = Half life in Han Wistar rat at 1 mg/kg, iv; type: ADME, organism-based; details: in vivo
[8] = Clearance in Han Wistar rat at 1 mg/kg, iv; type: ADME, organism-based; details: in vivo

## C[C@H]1[C@H](NC(=O)/C(=N\OC(C)(C)C(=O)O)c2csc(N)n2)C(=O)N1C(=O)NS(=O)(=O)n1nc(-c2cc(=O)c(O)cn2O)n(CCCS(C)(=O)=O)c1=O
[1]
  half-life: 82 h
[2]
  fraction unbound at 16 h: 0.12
Pseudomonas aeruginosa [3]
  MIC: 4 µg/mL (≈ 5.06 µM)
Pseudomonas aeruginosa [4]
  K: 1.5 ×10⁵ /M/s

## C[C@H]1[C@H](NC(=O)/C(=N\OC(C)(C)C(=O)O)c2csc(N)n2)C(=O)N1C(=O)NS(=O)(=O)n1nc(-c2cc(=O)c(O)c[nH]2)n(CCCCS(C)(=O)=O)c1=O
[1]
  half-life: 100 h
[2]
  fraction unbound at 16 h: 0.07
Pseudomonas aeruginosa [3]
  MIC: 0.25 µg/mL (≈ 0.317 µM)
Pseudomonas aeruginosa [4]
  K: 6.2 ×10⁵ /M/s

## C[C@@H](O)[C@H]1C(=O)N2C(C(=O)O)=C(S[C@@H]3CN[C@H](C(=O)N(C)C)C3)[C@H](C)[C@H]12 [MEROPENEM]
[1]
  half-life: 95 h
Pseudomonas aeruginosa [3]
  MIC: 1 µg/mL (≈ 2.61 µM)
Pseudomonas aeruginosa [4]
  K: 4.9 ×10⁴ /M/s

## C[C@H]1[C@H](NC(=O)/C(=N\OC(C)(C)C(=O)O)c2csc(N)n2)C(=O)N1S(=O)(=O)O [AZTREONAM]
Pseudomonas aeruginosa [3]
  MIC: 4 µg/mL (≈ 9.19 µM)
Pseudomonas aeruginosa [5]
  MIC90: ≥ 1020 µg/mL

## C=C[C@H]1[C@H](NC(=O)/C(=N\OC(C)(C)C(=O)O)c2csc(N)n2)C(=O)N1C(=O)NS(=O)(=O)n1nc(-c2cc(=O)c(O)c[nH]2)n(CCCS(C)(=O)=O)c1=O
[6]
  Vd: 0.18 L/kg
[1]
  half-life: 53 h
[7]
  half-life: 2 h
[8]
  clearance: 11 mL/min/kg
Pseudomonas aeruginosa [3]
  MIC: 0.5 µg/mL (≈ 0.635 µM)
Pseudomonas aeruginosa [4]
  K: 2.1 ×10⁵ /M/s

## C[C@H]1[C@H](NC(=O)/C(=N\OC(C)(C)C(=O)O)c2csc(N)n2)C(=O)N1C(=O)NS(=O)(=O)n1nc(-c2cc(=O)c(O)c[nH]2)n(CCS(C)(=O)=O)c1=O
[6]
  Vd: 0.23 L/kg
[1]
  half-life: 86 h
[7]
  half-life: 2.5 h
[8]
  clearance: 8.9 mL/min/kg
[2]
  fraction unbound at 16 h: 0.06
Pseudomonas aeruginosa [3]
  MIC: 0.13 µg/mL (≈ 0.171 µM)
Pseudomonas aeruginosa [4]
  K: 3.2 ×10⁵ /M/s
Pseudomonas aeruginosa [5]
  MIC90: 1 µg/mL (≈ 1.31 µM)

## C=CC[C@@H]1[C@H](NC(=O)/C(=N\OC(C)(C)C(=O)O)c2csc(N)n2)C(=O)N1C(=O)NS(=O)(=O)n1nc(-c2cc(=O)c(O)c[nH]2)n(CCCS(C)(=O)=O)c1=O
[1]
  half-life: 126 h
Pseudomonas aeruginosa [3]
  MIC: 8 µg/mL (≈ 9.99 µM)
Pseudomonas aeruginosa [4]
  K: 5.9 ×10⁵ /M/s

## CC(C)(O/N=C(\C(=O)N[C@H]1CN(C(=O)NS(=O)(=O)n2nc(-c3cc(=O)c(O)c[nH]3)n(C[C@@H](O)CO)c2=O)C1=O)c1csc(N)n1)C(=O)O
[2]
  fraction unbound at 16 h: 0.06
Pseudomonas aeruginosa [3]
  MIC: 0.78 µg/mL (≈ 1.09 µM)
Pseudomonas aeruginosa [4]
  K: 8.1 ×10⁵ /M/s

## C=C[C@@H]1[C@H](NC(=O)/C(=N\OC(C)(C)C(=O)O)c2csc(N)n2)C(=O)N1C(=O)NS(=O)(=O)n1nc(-c2cc(=O)c(O)c[nH]2)n(CCCS(C)(=O)=O)c1=O
[1]
  half-life: 38 h
Pseudomonas aeruginosa [3]
  MIC: 2 µg/mL (≈ 2.54 µM)
Pseudomonas aeruginosa [4]
  K: 1.9 ×10⁵ /M/s

## Cn1c(-c2cc(=O)c(O)c[nH]2)nn(S(=O)(=O)NC(=O)N2C[C@H](NC(=O)/C(=N\OC(C)(C)C(=O)O)c3csc(N)n3)C2=O)c1=O
[2]
  fraction unbound at 16 h: 0.05
Pseudomonas aeruginosa [3]
  MIC: 0.78 µg/mL (≈ 1.19 µM)
Pseudomonas aeruginosa [4]
  K: 1.7 ×10⁵ /M/s

## C[C@H]1[C@H](NC(=O)/C(=N\OC(C)(C)C(=O)O)c2nsc(N)n2)C(=O)N1C(=O)NS(=O)(=O)n1nc(-c2cc(=O)c(O)c[nH]2)n(CCCS(C)(=O)=O)c1=O
[6]
  Vd: 0.26 L/kg
[1]
  half-life: 85 h
[7]
  half-life: 2 h
[8]
  clearance: 9.5 mL/min/kg
[2]
  fraction unbound at 16 h: 0.27
Pseudomonas aeruginosa [3]
  MIC: 0.25 µg/mL (≈ 0.322 µM)
Pseudomonas aeruginosa [4]
  K: 5 ×10⁵ /M/s

## C[C@H]1[C@H](NC(=O)/C(=N\OC(C)(C)C(=O)O)c2nc(N)sc2Cl)C(=O)N1C(=O)NS(=O)(=O)n1nc(-c2cc(=O)c(O)c[nH]2)n(CCCS(C)(=O)=O)c1=O
[1]
  half-life: 118 h
[2]
  fraction unbound at 16 h: 0.06
Pseudomonas aeruginosa [3]
  MIC: 1 µg/mL (≈ 1.24 µM)
Pseudomonas aeruginosa [4]
  K: 3.2 ×10⁵ /M/s

## C[C@H]1[C@H](NC(=O)/C(=N\OC(C)(C)C(=O)O)c2csc(N)n2)C(=O)N1C(=O)NS(=O)(=O)n1nc(-c2cc(=O)c(O)c[nH]2)n(CC2(CS(C)(=O)=O)CC2)c1=O
[1]
  half-life: 71 h
[2]
  fraction unbound at 16 h: 0.09
Pseudomonas aeruginosa [3]
  MIC: 0.5 µg/mL (≈ 0.624 µM)
Pseudomonas aeruginosa [4]
  K: 2.5 ×10⁵ /M/s

## C[C@H]1[C@H](NC(=O)/C(=N\OC(C)(C)C(=O)O)c2csc(N)n2)C(=O)N1C(=O)NS(=O)(=O)n1nc(-c2cc(=O)c(O)c[nH]2)n(CCS(N)(=O)=O)c1=O
[1]
  half-life: 102 h
Pseudomonas aeruginosa [3]
  MIC: < 0.6 µg/mL
Pseudomonas aeruginosa [4]
  K: > 4 ×10⁵ /M/s

## C[C@H]1[C@H](NC(=O)/C(=N\OC(C)(C)C(=O)O)c2csc(N)n2)C(=O)N1C(=O)NS(=O)(=O)n1nc(-c2cc(=O)c(O)c[nH]2)n(CCCS(=O)(=O)c2ccccc2)c1=O
[1]
  half-life: > 150 h
[2]
  fraction unbound at 16 h: 0.03
Pseudomonas aeruginosa [3]
  MIC: 1 µg/mL (≈ 1.19 µM)
Pseudomonas aeruginosa [4]
  K: > 4 ×10⁵ /M/s

## C[C@H]1[C@H](NC(=O)/C(=N\OC(C)(C)C(=O)O)c2csc(N)n2)C(=O)N1C(=O)NS(=O)(=O)n1nc(-c2cc(=O)c(O)c[nH]2)n(CCCNS(C)(=O)=O)c1=O
[2]
  fraction unbound at 16 h: 0.08
Pseudomonas aeruginosa [3]
  MIC: 0.5 µg/mL (≈ 0.633 µM)
Pseudomonas aeruginosa [4]
  K: 3 ×10⁵ /M/s

## CC[C@H]1[C@H](NC(=O)/C(=N\OC(C)(C)C(=O)O)c2csc(N)n2)C(=O)N1C(=O)NS(=O)(=O)n1nc(-c2cc(=O)c(O)c[nH]2)n(CCCS(C)(=O)=O)c1=O
[6]
  Vd: 0.35 L/kg
[1]
  half-life: 98 h
[7]
  half-life: 2 h
[8]
  clearance: 12 mL/min/kg
Pseudomonas aeruginosa [3]
  MIC: 0.5 µg/mL (≈ 0.634 µM)
Pseudomonas aeruginosa [4]
  K: 3.6 ×10⁵ /M/s

## C[C@H]1[C@H](NC(=O)/C(=N\OC(C)(C)C(=O)O)c2csc(N)n2)C(=O)N1C(=O)NS(=O)(=O)n1nc(-c2cc(=O)c(O)c[nH]2)n(C[C@@H](O)CO)c1=O
[1]
  half-life: 117 h
[2]
  fraction unbound at 16 h: 0.04
Pseudomonas aeruginosa [3]
  MIC: 0.25 µg/mL (≈ 0.343 µM)
Pseudomonas aeruginosa [4]
  K: 7.2 ×10⁵ /M/s

## CCC[C@@H]1[C@H](NC(=O)/C(=N\OC(C)(C)C(=O)O)c2csc(N)n2)C(=O)N1C(=O)NS(=O)(=O)n1nc(-c2cc(=O)c(O)c[nH]2)n(CCCS(C)(=O)=O)c1=O
[1]
  half-life: > 150 h
Pseudomonas aeruginosa [3]
  MIC: 4 µg/mL (≈ 4.98 µM)
Pseudomonas aeruginosa [4]
  K: 7.4 ×10⁵ /M/s

## C[C@H]1[C@H](NC(=O)/C(=N\OC(C)(C)C(=O)O)c2csc(N)n2)C(=O)N1C(=O)NS(=O)(=O)n1nc(-c2cc(=O)c(O)c[nH]2)n(CCNS(C)(=O)=O)c1=O
[1]
  half-life: 61 h
[2]
  fraction unbound at 16 h: 0.08
Pseudomonas aeruginosa [3]
  MIC: 0.5 µg/mL (≈ 0.645 µM)
Pseudomonas aeruginosa [4]
  K: 4.1 ×10⁵ /M/s

## CC(C)(O/N=C(\C(=O)N[C@@H]1C(=O)N(C(=O)NS(=O)(=O)n2nc(-c3cc(=O)c(O)c[nH]3)n(CCCS(C)(=O)=O)c2=O)C1(C)C)c1csc(N)n1)C(=O)O
[1]
  half-life: > 150 h
Pseudomonas aeruginosa [3]
  MIC: 8 µg/mL (≈ 10.1 µM)
Pseudomonas aeruginosa [4]
  K: 1.1 ×10⁵ /M/s

## C[C@H]1[C@H](NC(=O)/C(=N\OC(C)(C)C(=O)O)c2csc(N)n2)C(=O)N1C(=O)NS(=O)(=O)n1nc(-c2cc(=O)c(O)c[nH]2)n(CCC2(S(C)(=O)=O)CC2)c1=O
[1]
  half-life: 94 h
[2]
  fraction unbound at 16 h: 0.04
Pseudomonas aeruginosa [3]
  MIC: 0.5 µg/mL (≈ 0.624 µM)
Pseudomonas aeruginosa [4]
  K: 4.5 ×10⁵ /M/s

## C[C@H]1[C@H](NC(=O)/C(=N\OC(C)(C)C(=O)O)c2csc(N)n2)C(=O)N1C(=O)NS(=O)(=O)n1nc(-c2cc(=O)c(O)c[nH]2)n(C[C@@H](O)CS(C)(=O)=O)c1=O
[1]
  half-life: 87 h
[2]
  fraction unbound at 16 h: 0.04
Pseudomonas aeruginosa [3]
  MIC: 1 µg/mL (≈ 1.26 µM)
Pseudomonas aeruginosa [4]
  K: 5.4 ×10⁵ /M/s

## C[C@@H]1[C@H](NC(=O)/C(=N\OC(C)(C)C(=O)O)c2csc(N)n2)C(=O)N1C(=O)NS(=O)(=O)n1nc(-c2cc(=O)c(O)c[nH]2)n(CCCS(C)(=O)=O)c1=O
[1]
  half-life: 76 h
Pseudomonas aeruginosa [3]
  MIC: 1 µg/mL (≈ 1.29 µM)
Pseudomonas aeruginosa [4]
  K: 1.6 ×10⁵ /M/s

## CC[C@@H]1[C@H](NC(=O)/C(=N\OC(C)(C)C(=O)O)c2csc(N)n2)C(=O)N1C(=O)NS(=O)(=O)n1nc(-c2cc(=O)c(O)c[nH]2)n(CCCS(C)(=O)=O)c1=O
[1]
  half-life: 94 h
Pseudomonas aeruginosa [3]
  MIC: 1 µg/mL (≈ 1.27 µM)
Pseudomonas aeruginosa [4]
  K: 8.8 ×10⁵ /M/s

## C[C@H]1[C@H](NC(=O)/C(=N\OC(C)(C)C(=O)O)c2csc(N)n2)C(=O)N1C(=O)NS(=O)(=O)n1nc(-c2cc(=O)c(O)cn2O)n(CCS(C)(=O)=O)c1=O
[1]
  half-life: 102 h
[2]
  fraction unbound at 16 h: 0.2
Pseudomonas aeruginosa [3]
  MIC: 1 µg/mL (≈ 1.29 µM)
Pseudomonas aeruginosa [4]
  K: 2.5 ×10⁵ /M/s

## C[C@H]1[C@H](NC(=O)/C(=N\OC(C)(C)C(=O)O)c2csc(N)n2)C(=O)N1C(=O)NS(=O)(=O)n1nc(-c2cc(=O)c(O)c[nH]2)n(CCCS(C)(=O)=O)c1=O
[6]
  Vd: 0.21 L/kg
[1]
  half-life: 93 h
[7]
  half-life: 3 h
[8]
  clearance: 7.3 mL/min/kg
[2]
  fraction unbound at 16 h: 0.09
Pseudomonas aeruginosa [3]
  MIC: 0.25 µg/mL (≈ 0.323 µM)
Pseudomonas aeruginosa [4]
  K: 1.7 ×10⁵ /M/s
